Usually Ki stands for the equilibrium dissociation constant of an inhibitor or competing ligand from its target.

Structures can show the parent of a compound that is named as a salt.

The target of the assay is adenosine A2A receptor (Homo sapiens, UniProt P29274). Briefly: adenosine A2A receptor agonist assay (method of Murphree et al, Molecular Pharmacology 61, 455-462 (2002)). In kind it is binding. Conditions: method of L. J. Murphree et al, Mol. Pharmacol. 61, 455-462 (2002). The source says: Compounds of formula I and their pharmaceutically acceptable salts are useful as pharmaceuticals. In particular, they activate the adenosine A2A receptor, i.e. they act as A2A receptor agonists.
Chain of adenosine A2A receptor (P29274 whole entry): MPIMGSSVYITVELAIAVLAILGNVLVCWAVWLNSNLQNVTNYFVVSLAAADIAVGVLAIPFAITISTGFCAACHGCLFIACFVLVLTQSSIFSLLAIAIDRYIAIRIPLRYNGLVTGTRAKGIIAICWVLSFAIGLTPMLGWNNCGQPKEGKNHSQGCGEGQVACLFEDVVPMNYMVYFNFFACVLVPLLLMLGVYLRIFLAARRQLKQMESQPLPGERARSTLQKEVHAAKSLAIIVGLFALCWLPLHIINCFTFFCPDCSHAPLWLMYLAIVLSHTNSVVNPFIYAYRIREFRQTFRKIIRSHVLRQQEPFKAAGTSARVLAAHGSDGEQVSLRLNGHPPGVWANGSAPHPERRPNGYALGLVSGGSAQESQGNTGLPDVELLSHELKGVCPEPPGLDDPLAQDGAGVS
On to `Cc1cnn([C@H]2C[C@@H](n3cnc4c(NCC(c5ccccc5)c5ccccc5)nc(NC5CCC(N)CC5)nc43)[C@H](O)[C@@H]2O)c1` (stereo partly drawn) [Example 1, (1R,2S,3R,5S)-3-[2-(4-Amino-cyclohexylamino)-6-(2,2-diphenyl-ethylamino)-purin-9-yl]-5-(4-methyl-pyrazol-1-yl)-cyclopentane-1,2-diol trifluoroacetate], for which the inhibition constant Ki turned out to be 0.197 µM.

In turn, `CCc1cnn([C@H]2C[C@@H](n3cnc4c(NCCc5ccccc5)nc(NCCc5cn(CC)cn5)nc43)[C@H](O)[C@@H]2O)c1` [Example 54, (1R,2S,3R,5S)-3-{2-[2-(1-Ethyl-1H-imidazol-4-yl)-ethylamino]-6-phenethylamino-purin-9-yl}-5-(4-ethyl-pyrazol-1-yl)-cyclopentane-1,2-diol] gave a Ki of 0.072 µM.

In the case of `CCn1cnc(CCNc2nc(NCC(c3ccccc3)c3ccccc3)c3ncn([C@@H]4C[C@H](n5cc(CO)cn5)[C@@H](O)[C@H]4O)c3n2)c1` [Example 47, (1R,2S,3R,5S)-3-{6-(2,2-Diphenyl-ethylamino)-2-[2-(1-ethyl-1H-imidazol-4-yl)-ethylamino]-purin-9-yl}-5-(4-hydroxymethyl-pyrazol-1-yl)-cyclopentane-1,2-diol], the Ki was found to be 0.01 µM.

For `CCCCC#Cc1nc(N)c2ncn([C@@H]3C[C@H](n4cc(CC)cn4)[C@@H](O)[C@H]3O)c2n1` [Example 37, (1R,2S,3R,5S)-3-(6-Amino-2-hex-1-ynyl-purin-9-yl)-5-(4-ethyl-pyrazol-1-yl)-cyclopentane-1,2-diol], the Ki stood at 0.121 µM.

Consider `Cc1cnn([C@H]2C[C@@H](n3cnc4c(NCC(c5ccccc5)c5ccccc5)nc(NCCc5cnc[nH]5)nc43)[C@H](O)[C@@H]2O)c1` [Example 4, (1R,2S,3R,5S)-3-{6-(2,2-Diphenyl-ethylamino)-2-[2-(3H-imidazol-4-yl)-ethylamino]-purin-9-yl}-5-(4-methyl-pyrazol-1-yl)-cyclopentane-1,2-diol], for which the inhibition constant Ki came to 0.172 µM.

`CCc1nnn([C@H]2C[C@@H](n3cnc4c(NCC(c5ccccc5)c5ccccc5)nc(N5CC[C@@H](NC(=O)NC6CCN(c7ccccn7)CC6)C5)nc43)[C@H](O)[C@@H]2O)n1` [Example 45, 1-((R)-1-{6-(2,2-Diphenyl-ethylamino)-9-[(1R,2S,3R,4S)-4-(5-ethyl-tetrazol-2-yl)-2,3-dihydroxy-cyclopentyl]-9H-purin-2-yl}-pyrrolidin-3-yl)-3-(3,4,5,6-tetrahydro-2H-[1,2′]bipyridinyl-4-yl)-urea] had a Ki of 0.017 µM.

As for `CCc1nnn([C@H]2C[C@@H](n3cnc4c(NCC(c5ccc(O)cc5)c5ccc(O)cc5)nc(N5CC[C@@H](NC(=O)Nc6ccncc6)C5)nc43)[C@H](O)[C@@H]2O)n1` [Example 109, 1-((R)-1-{6-[2,2-Bis-(4-hydroxy-phenyl)-ethylamino]-9-[(1R,2S,3R,4S)-4-(5-ethyl-tetrazol-2-yl)-2,3-dihydroxy-cyclopentyl]-9H-purin-2-yl}-pyrrolidin-3-yl)-3-pyridin-4-yl-urea hydrochloride], the affinity, expressed as Ki, was 0.005 µM.

Regarding `CN(C)[C@@H]1CCN(c2nc(NCC(c3ccccc3)c3ccccc3)c3ncn([C@@H]4C[C@H](n5cc(CO)cn5)[C@@H](O)[C@H]4O)c3n2)C1` [Example 96, (1R,2S,3R,5S)-3-[2-((R)-3-Dimethylamino-pyrrolidin-1-yl)-6-(2,2-diphenyl-ethylamino)-purin-9-yl]-5-(4-hydroxymethyl-pyrazol-1-yl)-cyclopentane-1,2-diol], the Ki worked out at 0.002 µM.

Take `O=C(NC1CCN(c2ccc(C(=O)O)cn2)CC1)N[C@@H]1CCN(c2nc(NCC(c3ccccc3)c3ccccc3)c3ncn([C@@H]4C[C@H](n5cc(CO)cn5)[C@@H](O)[C@H]4O)c3n2)C1` [Example 86, 4-(3-{(R)-1-[9-[(1R,2S,3R,4S)-2,3-Dihydroxy-4-(4-hydroxymethyl-pyrazol-1-yl)-cyclopentyl]-6-(2,2-diphenyl-ethylamino)-9H-purin-2-yl]-pyrrolidin-3-yl}-ureido)-3,4,5,6-tetrahydro-2H-[1,2′]bipyridinyl-5′-carboxylic acid trifluoroacetate]: the affinity corresponds to a Ki of 0.04 µM.

Regarding `O=C(NC1CCN(c2ccccn2)CC1)N[C@@H]1CCN(c2nc(NCC(c3ccccc3)c3ccccc3)c3ncn([C@@H]4C[C@H](n5cc(CO)cn5)[C@@H](O)[C@H]4O)c3n2)C1` [Example 77, 1-{(R)-1-[9-[(1R,2S,3R,4S)-2,3-Dihydroxy-4-(4-hydroxymethyl-pyrazol-1-yl)-cyclopentyl]-6-(2,2-diphenyl-ethylamino)-9H-purin-2-yl]-pyrrolidin-3-yl}-3-(3,4,5,6-tetrahydro-2H-[1,2′]bipyridinyl-4-yl)-urea trifluoroacetate], the inhibition constant Ki worked out at 0.02 µM.

In the case of `NC1CCC(Nc2nc(NCC(c3ccccc3)c3ccccc3)c3ncn([C@@H]4C[C@H](n5cccn5)[C@@H](O)[C@H]4O)c3n2)CC1` (stereo partly drawn) [Example 12, (1R,2S,3R,5S)-3-[2-(4-Amino-cyclohexylamino)-6-(2,2-diphenyl-ethylamino)-purin-9-yl]-5-pyrazol-1-yl-cyclopentane-1,2-diol], the Ki was 0.272 µM.

In turn, `CCc1cnn([C@H]2C[C@@H](n3cnc4c(NCC(c5ccccc5)c5ccccc5)nc(N5CC[C@@H](NC(=O)Nc6ccncc6)C5)nc43)[C@H](O)[C@@H]2O)n1` [Example 127, 1-((R)-1-{6-(2,2-Diphenyl-ethylamino)-9-[(1R,2S,3R,4S)-4-(4-ethyl-[1,2,3]triazol-2-yl)-2,3-dihydroxy-cyclopentyl]9H-purin-2-yl}-pyrrolidin-3-yl)-3-pyridin-4-yl-urea hydrochloride] came in with a Ki of 0.003 µM.

On to `CCCCC#Cc1nc(N)c2ncn([C@@H]3C[C@H](n4cc(CO)cn4)[C@@H](O)[C@H]3O)c2n1` [Example 40, (1R,2S,3R,5S)-3-(6-Amino-2-hex-1-ynyl-purin-9-yl)-5-(4-hydroxymethyl-pyrazol-1-yl)-cyclopentane-1,2-diol], for which affinity was put at a Ki of 0.067 µM.

For the compound `Cc1cnn([C@H]2C[C@@H](n3cnc4c(N)nc(N[C@@H]5CCC[C@H]5OCc5ccccc5)nc43)[C@H](O)[C@@H]2O)c1` [Example 22, (1R,2S,3R,5S)-3-[6-Amino-2-((1R,2R)-2-benzyloxy-cyclopentylamino)-purin-9-yl]-5-(4-methyl-pyrazol-1-yl)-cyclopentane-1,2-diol], the Ki amounted to 0.138 µM.

The compound `CCc1nnn([C@H]2C[C@@H](n3cnc4c(NCC(c5ccccc5)c5ccccc5)nc(N5CC[C@@H](NC(=O)Nc6cccc(-c7nnn[nH]7)c6)C5)nc43)[C@H](O)[C@@H]2O)n1` [Example 157, 1-((R)-1-{6-(2,2-Diphenyl-ethylamino)-9-[(1R,2S,3R,4S)-4-(5-ethyl-tetrazol-2-yl)-2,3-dihydroxy-cyclopentyl]-9H-purin-2-yl}-pyrrolidin-3-yl)-3-[3-(1H-tetrazol-5-yl)-phenyl]-urea hydrochloride] registered a Ki of 0.003 µM.

As to `Cc1nnn([C@H]2C[C@@H](n3cnc4c(NCC(c5ccccc5)c5ccccc5)nc(N5CC[C@@H](NS(C)(=O)=O)C5)nc43)[C@H](O)[C@@H]2O)n1` [Example 67, N-{(R)-1-[9-[(1R,2S,3R,4S)-2,3-Dihydroxy-4-(5-methyl-tetrazol-2-yl)-cyclopentyl]-6-(2,2-diphenyl-ethylamino)-9H-purin-2-yl]pyrrolidin-3-yl}-methanesulfonamide], the affinity corresponds to a Ki of 0.071 µM.

For `CCc1nnn([C@H]2C[C@@H](n3cnc4c(NCC(c5ccccc5)c5ccccc5)nc(N5CC[C@@H](NC(=O)NCc6ccnc7ccccc67)C5)nc43)[C@H](O)[C@@H]2O)n1` [Example 150, 1-((R)-1-{6-(2,2-Diphenyl-ethylamino)-9-[(1R,2S,3R,4S)-4-(5-ethyl-tetrazol-2-yl)-2,3-dihydroxy-cyclopentyl]-9H-purin-2-yl}-pyrrolidin-3-yl)-3 quinolin-4-ylmethyl-urea hydrochloride], the affinity, expressed as Ki, was 0.006 µM.

As for `O=C(N[C@@H]1CCNC1)c1nc(NCC(c2ccccc2)c2ccccc2)c2ncn([C@@H]3C[C@H](n4cc(CO)cn4)C(O)C3O)c2n1` (stereo partly drawn) [Example 64, 9-[(1R,4S)-2,3-Dihydroxy-4-(4-hydroxymethyl-pyrazol-1-yl)-cyclopentyl]-6-(2,2-diphenyl-ethylamino)-9H-purine-2-carboxylic acid (R)pyrrolidin-3-yl amide], the Ki came to 0.049 µM.

The values are drawn from patent publication US20090093633A1, “Organic Compounds” (Novartis AG, priority 2006, published 2009).
